{"source": "patent US7288532B1", "about": "“Modified chitosan polymers and enzymatic methods for the production thereof” (The University of Maryland Biotechnology Institute, priority 1998, dated 2007)", "tested_on": "tyrosinase", "test": "tyrosinase activity under mildly acidic conditions by consumption of dissolved oxygen", "type": "biochemical, mushroom", "settings": "chlorogenic acid 6 mM, 0.16% chitosan, pH about 5.8 to 6.0, tyrosinase 60 U/mL", "protocol": "The reactivity of tyrosinase under mildly acidic conditions was studied to verify that the enzyme remains active in acidic solution. The progress of the reaction was measured by monitoring the consumption of dissolved oxygen, using the method described in Mayer et al., “Assay of catechol oxidase: A critical comparison of methods,” Phytochem., 5:783-789 (1966). The dissolved oxygen probe used in these measurements was obtained from Microelectrodes, Londonderry, N.H. Chlorogenic acid (6 mM) was added to a 0.16% chitosan solution, and the pH was adjusted to about 5.8 to 6.0. Tyrosinase (60 U/mL) was added, the reaction vessel sealed, and the dissolved oxygen content measured as a function of time. Two control solutions were prepared and monitored in the same manner, one containing only tyrosinase and chitosan (no phenolic compound), and one containing only chlorogenic acid and chitosan (no enzyme). The results of these measurements are shown in FIG. 1, with the two control solutions labeled “tyrosinase only” and “chlorogenic acid only,” respectively. […] In the solution containing both tyrosinase and chlorogenic acid, however, the oxygen level dropped rapidly in the first few minutes, reaching essentially zero after about 10 to 12 minutes."}
{"smiles": "O=C(/C=C/c1ccc(O)c(O)c1)O[C@@H]1C[C@](O)(C(=O)O)C[C@@H](O)[C@H]1O", "note": "[chlorogenic acid]", "values": [{"measurement": "time for dissolved oxygen level to reach essentially zero", "result": "10 to 12", "unit": "min"}]}
